{"source": "patent US20060188938A1", "about": "“Compounds for inhibiting beta-amyloid production and methods of identifying the compounds” (priority 2005, published 2006)"}
{"tested_on": "β-amyloid production by 7W WT APP751 CHO cells", "assay": "Screening of dihydropyridine compounds (Maybridge), Aβ1-40 and Aβ1-42 ELISA (Example 2)", "assay_type": "cell-based, Chinese hamster", "conditions": "30 μM, 24 hours (FIGS. 5A-B)", "method": "Dihydropyridine compounds were obtained from Maybridge (England). Each compound was dissolved in DMSO. 7W WT APP751 CHO cells overexpressing APP751 were plated into 96-well culture plates in 200 μL of culture medium. Each compound from the library was added to confluent cells to a final concentration of 30 μM. After 24 hours of treatment, culture medium was collected and dissolved 10-fold and 2-fold for measuring the level of Aβ1-40 and Aβ1-42, respectively. Aβ1-40 and Aβ1-42 were determined using commercially available ELISAs (Biosource, CA), following the recommendations of the manufacturer."}
{"smiles": "CCOC(=O)C1=C(C)NC(C)=C(C(=O)OCC)C1c1ccc(C)cc1", "note": "[JFD 03282, diethyl 2,6-dimethyl-4-(4-methylphenyl)-1,4-dihydropyridine-3,5-dicarboxylate]", "concentration of Aβ1-40 compared to controls": "significantly decreased", "concentration of Aβ1-42 compared to controls": "significantly decreased", "concentration of total β-amyloid (Aβ1-40+Aβ1-42) compared to controls": "significantly decreased"}
{"smiles": "COC(=O)C1=C(C)NC(C)=C(C(=O)OC)C1c1ccc(Cl)c(Cl)c1", "note": "[JFD 03293, dimethyl 4-(3,4-dichlorophenyl)-2,6-dimethyl-1,4-dihydropyridine-3,5-dicarboxylate]", "concentration of Aβ1-40 compared to controls": "significantly decreased", "concentration of Aβ1-42 compared to controls": "significantly decreased", "concentration of total β-amyloid (Aβ1-40+Aβ1-42) compared to controls": "significantly decreased"}
{"smiles": "O=C1C=C(c2ccccc2)CN(C2CCCCC2)C1=O", "note": "[HTS 01512, 1-cyclohexyl-5-phenyl-1,6-dihydro-2,3-pyridinedione]", "concentration of Aβ1-40 compared to controls": "significantly decreased", "concentration of Aβ1-42 compared to controls": "significantly decreased", "concentration of total β-amyloid (Aβ1-40+Aβ1-42) compared to controls": "significantly decreased"}
{"smiles": "CCOC(=O)C1=C(C)NC(C)=C(C(=O)OCC)C1c1cccc(Cl)c1", "note": "[JFD 03274, diethyl 4-(3-chlorophenyl)-2,6-dimethyl-1,4-dihydropyridine-3,5-dicarboxylate]", "concentration of Aβ1-40 compared to controls": "significantly decreased", "concentration of total β-amyloid (Aβ1-40+Aβ1-42) compared to controls": "significantly decreased"}
{"smiles": "CCOC(=O)C1=C(C)NC(C)=C(C(=O)OCC)C1c1ccc(OC)cc1Cl", "note": "[RJC 03413, diethyl 4-(2-chloro-4-methoxyphenyl)-2,6-dimethyl-1,4-dihydro-3,5-pyridinedicarboxylate]", "concentration of Aβ1-40 compared to controls": "significantly decreased", "concentration of total β-amyloid (Aβ1-40+Aβ1-42) compared to controls": "significantly decreased"}
{"smiles": "CC1=C(C#N)C(c2ccc(Cl)c(Cl)c2)C(C#N)=C(C)N1", "note": "[JFD 03292, 4-(3,4-dichlorophenyl)-2,6-dimethyl-1,4-dihydropyridine-3,5-dicarbonitrile]", "concentration of Aβ1-40 compared to controls": "significantly decreased", "concentration of total β-amyloid (Aβ1-40+Aβ1-42) compared to controls": "significantly decreased"}
{"smiles": "COC(=O)C1=C(C)NC(C)=C(C(=O)OC)C1c1ccc(-c2ccsc2C(=O)OC)o1", "note": "[SEW 02070, dimethyl 4-{5-[2-(methoxycarbonyl)-3-thienyl]-2-furyl}-2,6-dimethyl-1,4-dihydropyridine-3,5-dicarboxylate]", "concentration of Aβ1-40 compared to controls": "significantly decreased", "concentration of total β-amyloid (Aβ1-40+Aβ1-42) compared to controls": "significantly decreased"}
{"smiles": "CCOC(=O)C1=C(C)NC(C)=C(C(=O)OCC)C1c1ccccc1[N+](=O)[O-]", "note": "[JFD 03311, diethyl 2,6-dimethyl-4-(2-nitrophenyl)-1,4-dihydropyridine-3,5-dicarboxylate]", "concentration of Aβ1-40 compared to controls": "significantly decreased", "concentration of total β-amyloid (Aβ1-40+Aβ1-42) compared to controls": "significantly decreased"}
{"smiles": "CCOC(=O)C1=C(C)NC(C)=C(C(=O)OCC)C1c1ccc(F)cc1", "note": "[JFD 03318, diethyl 4-(4-fluorophenyl)-2,6-dimethyl-1,4-dihydropyridine-3,5-dicarboxylate]", "concentration of Aβ1-40 compared to controls": "significantly decreased", "concentration of Aβ1-42 compared to controls": "significantly decreased", "concentration of total β-amyloid (Aβ1-40+Aβ1-42) compared to controls": "significantly decreased"}
{"smiles": "CCOC(=O)C1=C(C)NC(C)=C(C(=O)OCC)C1c1ccc([N+](=O)[O-])cc1", "note": "[JFD 03266, diethyl 2,6-dimethyl-4-(4-nitrophenyl)-1,4-dihydropyridine-3,5-dicarboxylate]", "concentration of Aβ1-40 compared to controls": "significantly decreased", "concentration of total β-amyloid (Aβ1-40+Aβ1-42) compared to controls": "significantly decreased"}
{"smiles": "CCOC(=O)C1=C(C)NC(C)=C(C(=O)OCC)C1c1ccc(-c2ccccc2C(F)(F)F)o1", "note": "[RJC 03405, diethyl 2,6-dimethyl-4-{5-[2-(trifluoromethyl)phenyl]-2-furyl}-1,4-dihydro-3,5-pyridinedicarboxylate]", "concentration of Aβ1-40 compared to controls": "significantly decreased", "concentration of total β-amyloid (Aβ1-40+Aβ1-42) compared to controls": "significantly decreased"}
{"smiles": "O=C1CC(c2ccccc2)CC(=O)N1c1ccc(Oc2ccc(Cl)cc2)cc1", "note": "[PD 00463, 1-[4-(4-chlorophenoxy)phenyl]-4-phenyldihydropyridine-2,6(1H,3H)-dione]", "concentration of Aβ1-40 compared to controls": "significantly decreased", "concentration of Aβ1-42 compared to controls": "significantly decreased", "concentration of total β-amyloid (Aβ1-40+Aβ1-42) compared to controls": "significantly decreased"}
{"smiles": "CCOC(=O)C1=C(C)NC(C)=C(C(=O)OCC)C1c1ccc(Cl)c(Cl)c1", "note": "[JFD 03294, diethyl 4-(3,4-dichlorophenyl)-2,6-dimethyl-1,4-dihydropyridine-3,5-dicarboxylate]", "concentration of Aβ1-40 compared to controls": "significantly decreased", "concentration of Aβ1-42 compared to controls": "significantly decreased", "concentration of total β-amyloid (Aβ1-40+Aβ1-42) compared to controls": "significantly decreased"}
{"smiles": "COC(=O)C1=C(C)NC(C)=C(C(=O)OC)C1c1ccc(Cl)cc1Cl", "note": "[RJC 03423, dimethyl 4-(2,4-dichlorophenyl)-2,6-dimethyl-1,4-dihydro-3,5-pyridinedicarboxylate]", "concentration of Aβ1-40 compared to controls": "significantly decreased", "concentration of Aβ1-42 compared to controls": "significantly decreased", "concentration of total β-amyloid (Aβ1-40+Aβ1-42) compared to controls": "significantly decreased"}
{"smiles": "CCOC(=O)C1=C(C)NC(C)=C(C(=O)OCC)C1c1ccc(Br)cc1", "note": "[JFD 01209, diethyl 4-(4-bromophenyl)-2,6-dimethyl-1,4-dihydropyridine-3,5-dicarboxylate]", "concentration of Aβ1-40 compared to controls": "significantly decreased", "concentration of Aβ1-42 compared to controls": "significantly decreased", "concentration of total β-amyloid (Aβ1-40+Aβ1-42) compared to controls": "significantly decreased"}
{"smiles": "N#Cc1c(-c2cn(-c3ccccc3)nc2-c2ccccc2)cc(-c2ccccc2)[nH]c1=O", "note": "[HTS 07578, 4-(1,3-diphenyl-1H-pyrazol-4-yl)-2-oxo-6-phenyl-1,2-dihydro-3-pyridinecarbonitrile]", "concentration of Aβ1-40 compared to controls": "significantly decreased", "concentration of Aβ1-42 compared to controls": "significantly decreased", "concentration of total β-amyloid (Aβ1-40+Aβ1-42) compared to controls": "significantly decreased"}
{"smiles": "CCOC(=O)C1=C(C)NC(C)=C(C(=O)OCC)C1c1ccc(Cl)cc1", "note": "[BTB 14328, diethyl 4-(4-chlorophenyl)-2,6-dimethyl-1,4-dihydropyridine-3,5-dicarboxylate]", "concentration of Aβ1-40 compared to controls": "significantly decreased", "concentration of Aβ1-42 compared to controls": "significantly decreased", "concentration of total β-amyloid (Aβ1-40+Aβ1-42) compared to controls": "significantly decreased"}
{"smiles": "CCOC(=O)C1=C(C)NC(C)=C(C(=O)OCC)C1c1ccccc1Cl", "note": "[JFD 03305, diethyl 4-(2-chlorophenyl)-2,6-dimethyl-1,4-dihydropyridine-3,5-dicarboxylate]", "concentration of Aβ1-40 compared to controls": "significantly decreased", "concentration of Aβ1-42 compared to controls": "significantly decreased", "concentration of total β-amyloid (Aβ1-40+Aβ1-42) compared to controls": "significantly decreased"}
{"smiles": "CCOC(=O)C1=C(C)NC(C)=C(C(=O)OCC)C1c1ccc(-c2cc(C(F)(F)F)cc(C(F)(F)F)c2)o1", "note": "[CD 04170, diethyl 4-{5-[3,5-di(trifluoromethyl)phenyl]-2-furyl}-2,6-dimethyl-1,4-dihydro-pyridine-3,5-dicarboxylate]", "concentration of Aβ1-40 compared to controls": "significantly decreased", "concentration of Aβ1-42 compared to controls": "significantly decreased", "concentration of total β-amyloid (Aβ1-40+Aβ1-42) compared to controls": "significantly decreased"}
{"smiles": "CCOC(=O)C1=C(C)NC(C)=C(C(=O)OCC)C1c1ccc(Cl)cc1Cl", "note": "[RJC 03403, diethyl 4-(2,4-dichlorophenyl)-2,6-dimethyl-1,4-dihydro-3,5-pyridinedicarboxylate]", "concentration of Aβ1-40 compared to controls": "significantly decreased", "concentration of Aβ1-42 compared to controls": "significantly decreased", "concentration of total β-amyloid (Aβ1-40+Aβ1-42) compared to controls": "significantly decreased"}
{"smiles": "CCOC(=O)C1=C(C)NC(C)=C(C(=O)OCC)C1c1cccc([N+](=O)[O-])c1", "note": "[XBX 00343, diethyl 2,6-dimethyl-4-(3-nitrophenyl)-1,4-dihydropyridine-3,5-dicarboxylate]", "concentration of Aβ1-40 compared to controls": "significantly decreased", "concentration of total β-amyloid (Aβ1-40+Aβ1-42) compared to controls": "significantly decreased"}
{"smiles": "N#Cc1c(-c2cccs2)cc(-c2ccccc2)[nH]c1=O", "note": "[HTS 10306, 2-oxo-6-phenyl-4-(2-thienyl)-1,2-dihydro-3-pyridinecarbonitrile]", "concentration of Aβ1-40 compared to controls": "significantly decreased", "concentration of Aβ1-42 compared to controls": "significantly decreased", "concentration of total β-amyloid (Aβ1-40+Aβ1-42) compared to controls": "significantly decreased"}
